What was measured:
Assay type in all cases: in vivo
[1] = system: Spodoptera eridania, 3rd instar larvae, southern armyworm (SAW); experiment: Southern armyworm (SAW) leaf-dip test; conditions: lima bean leaf dip, after 5 days, kill rating 0-9
Description: (§1) Test solutions are prepared by dissolving the test compound in a 35% acetone in water mixture to give a concentration of 10000 ppm. Subsequent dilutions are made with water as needed.
Spodoptera eridania, 3rd instar larvae, southern armyworm (SAW)
A Sieva lima bean leaf expanded to 7-8 cm in length is dipped in the test solution with agitation for 3 seconds and allowed to dry in a hood. The leaf is then placed in a 100×10 mm petri dish containing a damp filter paper on the bottom and ten 3rd instar caterpillars. After 5 days, observations are made of mortality, reduced feeding, or any interference with normal molting.

[2] = system: Diabrotica virgifera virgifera Leconte, 3rd instar western corn rootworm (WCR); experiment: Western corn rootworm (WCR) soil test; conditions: 1.25 mg active ingredient per jar in soil (approx. 50 kg/ha), 5 days, kill rating 0-9
Description: Diabrotica virgifera virgifera Leconte, 3rd instar western corn rootworm (WCR) One ccm of fine talc is placed in a 30 ml wide-mouth screw-top glass jar. One ml of the appropriate acetone test solution is pipetted onto the talc so as to provide 1.25 mg of active ingredient per jar. The jars are set under a gentle air flow until the acetone is evaporated. The dried talc is loosened, 1 ccm of millet seed is added to serve as food for the insects and 25 ml of moist soil is added to each jar. The jar is capped and the contents thoroughly mixed mechanically. Following this, ten 3rd instar rootworms are added to each jar and the jars are loosely capped to allow air exchange for the larvae. The treatments are held for 5 days when mortality counts are made. Missing larvae are presumed dead, since they decompose rapidly and cannot be found. The concentrations of active ingredient used in this test correspond approximately to 50 kg/ha.

[3] = system: Heliothis virenscens, 3rd instar tobacco budworm (TBW); experiment: Tobacco budworm (TBW) cotton cotyledon dip test; set-up: key: 0 = no effect; 1 = 10-25% kill; 2 = 26-35% kill; 3 = 36-45% kill; 4 = 46-55% kill; 5 = 56-65% kill; 6 = 66-75% kill; 7 = 76-85% kill; 8 = 86-99% kill; 9 = 100% kill; conditions: 3 days, kill rating 0-9
Description: as §1
Heliothis virenscens, 3rd instar tobacco budworm (TBW)
Cotton cotyledons are dipped in the test solution and allowed to dry in a hood. When dry, each is cut into quarters and ten sections are placed individually in 30 ml plastic medicine cups containing a 5 to 7 mm long piece of damp dental wick. One 3rd instar caterpillar is added to each cup and a cardboard lid placed on the cup. Treatments are maintained for 3 days before mortality counts and estimates of reduction in feeding damage are made.

[4] = system: Aphis fabae, mixed instar, bean aphid (BA); experiment: Bean aphid (BA) spray test on nasturtium; set-up: key: 0 = no effect; 1 = 10-25% kill; 2 = 26-35% kill; 3 = 36-45% kill; 4 = 46-55% kill; 5 = 56-65% kill; 6 = 66-75% kill; 7 = 76-85% kill; 8 = 86-99% kill; 9 = 100% kill; conditions: spray on infested nasturtium plants, 2 days, kill rating 0-9
Description: Test solutions are prepared by dissolving the test compound in a 35% acetone in water mixture to give a concentration of 10000 ppm. Subsequent dilutions are made with water as needed. Aphis fabae, mixed instar, bean aphid (BA) Pots containing single nasturtium plants (Tropaeolum sp.) about 5 cm tall are infested with about 100-200 aphids one day before the test. Each pot is sprayed with the test solution for 2 revolutions of a 4 rounds per minute (rpm) turntable in a hood. The spray is directed to give complete coverage of the plants and aphids. The sprayed pots are set on their sides on white trays and held for 2 days, following which mortality estimates are made.

[5] = system: Tetranychus urticae (OP-resistant strain), 2-spotted spider mite (TSM); experiment: 2-spotted spider mite (TSM) plant dip test; set-up: key: 0 = no effect; 1 = 10-25% kill; 2 = 26-35% kill; 3 = 36-45% kill; 4 = 46-55% kill; 5 = 56-65% kill; 6 = 66-75% kill; 7 = 76-85% kill; 8 = 86-99% kill; 9 = 100% kill; conditions: dip of infested lima bean plants, 2 days, kill rating 0-9
Description: as §1
Tetranychus urticae (OP-resistant strain), 2-spotted spider mite (TSM)
Sieva lima bean plants with primary leaves expanded to 7-8 cm are selected and cut back to one plant per pot. A small piece is cut from an infested leaf taken from the main colony and placed on each leaf of the test plants. This is done about 2 hours before treatment to allow the mites to move over to the test plant to lay eggs. By the size of the cut, infested leaf is varied to obtain about 100 mites per leaf. At the time of test treatment, the piece of leaf used to transfer the mites is removed and discarded. The newly-infested plants are dipped in the test solution for 3 seconds with agitation and set in the hood to dry. After 2 days, one leaf is removed and mortality counts are made.

| Structure (SMILES) | SAW (100 ppm) rating [1] | WCR (50 ppm) rating [2] | TBW (100 ppm) rating [3] | BA (100 ppm) rating [4] | TSM (100 ppm) rating [5] |
| --- | --- | --- | --- | --- | --- |
| C=CCC(/C(F)=C(\F)Cc1cccc(Oc2ccccc2)c1)c1ccc(Cl)cc1 (centres unmarked) [Compound 2, 1[(2E)-4-(4-chlorophenyl)-2,3-difluoro-2,6-heptadienyl]-3-phenoxybenzene] | 9 (9 = 100% kill) | 9 (9 = 100% kill) | 9 (9 = 100% kill) | 9 (9 = 100% kill) | 0 |
| COCCC(/C(F)=C(\F)Cc1cccc(Oc2ccccc2)c1)c1ccc(Cl)cc1 (centres unmarked) [Compound 1, 1-[(2E)-4-(4-chlorophenyl)-2,3-difluoro-6-methoxy-2-hexenyl]-3-phenoxybenzene] | 9 (9 = 100% kill) | 8 (8 = 86-99% kill) | 0 | 2 (2 = 26-35% kill) | 0 |
| COCCC(/C(F)=C(\F)Cc1ccc(F)c(Oc2ccccc2)c1)c1ccc(Cl)cc1 (centres unmarked) [Compound 4, 4-[(2E)-4-(4-chlorophenyl)-2,3-difluoro-6-methoxy-2-hexenyl]-1-fluoro-2-phenoxybenzene] | 9 (9 = 100% kill) | 9 (9 = 100% kill) | 9 (9 = 100% kill) | 0 | 0 |
| C=CC(/C(F)=C(\F)Cc1cccc(Oc2ccccc2)c1)c1ccc(Cl)cc1 (centres unmarked) [Compound 3, 1-[(2E)-4-(4-chlorophenyl)-2,3-difluoro-2,5-hexadienyl]-3-phenoxybenzene] | 9 (9 = 100% kill) | 9 (9 = 100% kill) | 9 (9 = 100% kill) | 9 (9 = 100% kill) | 0 |

Reference: patent US6506800B2, “1,4 diaryl-2,3-difluoro-2-butene insecticidal and acaricidal agents” (BASF Aktiengesellschaft, priority 2000, dated 2003)
